# Measurements: patent US20220151979A1, “COMPOSITION FOR PREVENTION OR TREATMENT OF CARDIOVASCULAR AND METABOLIC DISEASE COMPRISING NORANHYDROICARITIN” (SEOUL NATIONAL UNIVERSITY HOSPITAL, priority 2019, published 2022)
# Tested on: SREBP 1 promoter
# Assay: SREBP 1 promoter-reporter luciferase assay in HEK293T cells
# Assay type: cell-based, human
# Conditions: pGL4.14-SREBP-transfected HEK293T cells, 18 hours, compared to control
# Protocol: In order to confirm the SREBP gene expression inhibitory effect of noranhydroicaritin, HEK293T cells were treated with noranhydroicaritin and kaempferol, and it was confirmed whether the expression of SREBP was inhibited through a luciferase assay.
# i) A primer was prepared to contain KpnI and XhoI restriction enzyme sites in the SREBP 1 and 2 promoter gene region, and then PCR (polymerase chain reaction) and electrophoresis on an agarose gel were performed to isolate SREBP promoter region DNA. A pGL4.14-[luc2/Hygro] vector containing a firefly luciferase as a reporter gene was treated with the same restriction enzymes (KpnI and XhoI), and then isolated via agarose gel electrophoresis and gel extraction. The purely isolated SREBP promoter gene region and pGL4.14-[luc2/Hygro] vector were reacted for 1 hour using In-fusion DNA ligase (Takara), and then transformed into E. coli to prepare a promoter-reporter construct in which the SREBP promoter was inserted, and this was named pGL4.14-SREBP.
# ii) In order to measure the transcriptional activity of the SREBP promoter gene, HEK293T cells were transfected with pGL4.14-SREBP, and then the luciferase activity of the cell extract was measured. […] Thereafter, the luciferase activity was measured by the method of Example 6. […]
smiles,measurement,value
"CC(C)=CCc1c(O)cc(O)c2c(=O)c(O)c(-c3ccc(O)cc3)oc12 [Noranhydroicaritin, noranhydroicaritin]",SREBP 1 luciferase activity,significantly decreased
